Like-named read-outs stand apart in the source and are kept apart here.
Columns and labels:
Assay in all cases: calcium imaging (Cal520-AM), HEK293T cells
Assay type in all cases: cell-based
dTas2r1 = molecular target: T1, dTas2r1 (Canis lupus, UniProt Q2ABE0); settings: agonist; Galpha16i/o44 cells; lowest concentration differing from mock cells; EC50 not determined
T1 construct: gene TAS2R1; HEK293T-PEAKrapid cells with Galpha16i/o44; gene on dog chromosome 34
T1 sequence (Q2ABE0 1-297): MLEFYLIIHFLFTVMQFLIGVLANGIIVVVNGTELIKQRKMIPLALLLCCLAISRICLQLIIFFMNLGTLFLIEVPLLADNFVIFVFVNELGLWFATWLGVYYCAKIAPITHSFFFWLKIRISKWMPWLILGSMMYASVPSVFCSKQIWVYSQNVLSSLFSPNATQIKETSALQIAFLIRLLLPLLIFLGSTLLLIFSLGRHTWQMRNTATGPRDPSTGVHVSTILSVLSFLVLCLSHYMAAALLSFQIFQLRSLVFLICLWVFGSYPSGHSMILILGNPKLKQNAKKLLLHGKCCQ
Text: calcium imaging (Cal520-AM), HEK293T cells on dTas2r1

dTas2r4 = molecular target: T2, dTas2r4 (Canis lupus, UniProt A0A8I3SCV7)
T2 construct: gene TAS2R4; HEK293T-PEAKrapid cells with Galpha16i/o44
T2 sequence (A0A8I3SCV7 1-299): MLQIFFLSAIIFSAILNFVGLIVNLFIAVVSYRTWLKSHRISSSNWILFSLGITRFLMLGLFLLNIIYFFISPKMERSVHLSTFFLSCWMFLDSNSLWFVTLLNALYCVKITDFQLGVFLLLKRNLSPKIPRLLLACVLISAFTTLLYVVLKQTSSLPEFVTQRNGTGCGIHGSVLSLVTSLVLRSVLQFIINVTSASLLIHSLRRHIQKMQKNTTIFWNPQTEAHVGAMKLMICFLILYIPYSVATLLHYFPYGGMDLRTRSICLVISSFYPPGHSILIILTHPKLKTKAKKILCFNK
Text: calcium imaging (Cal520-AM), HEK293T cells on dTas2r4

dTas2r10 = molecular target: T3, dTas2r10 (Canis lupus, UniProt Q2ABD4)
T3 construct: gene TAS2R10; HEK293T-PEAKrapid cells with Galpha16i/o44
T3 sequence (Q2ABD4 1-322): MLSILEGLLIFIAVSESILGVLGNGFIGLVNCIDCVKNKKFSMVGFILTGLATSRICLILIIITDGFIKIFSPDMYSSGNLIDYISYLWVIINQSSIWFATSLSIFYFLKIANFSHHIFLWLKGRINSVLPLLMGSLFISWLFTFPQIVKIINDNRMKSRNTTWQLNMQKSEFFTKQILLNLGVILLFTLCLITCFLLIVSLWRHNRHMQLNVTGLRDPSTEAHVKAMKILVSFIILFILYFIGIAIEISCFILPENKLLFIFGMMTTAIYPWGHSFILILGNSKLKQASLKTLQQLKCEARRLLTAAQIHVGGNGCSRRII
Text: calcium imaging (Cal520-AM), HEK293T cells on dTas2r10

dTas2r41 = molecular target: T4, dTas2r41 (Canis lupus, UniProt A0A8I3NKU5); settings: agonist; Galpha16i/o44 cells; lowest concentration differing from mock cells; EC50 not determined
T4 construct: gene TAS2R41; HEK293T-PEAKrapid cells with Galpha16i/o44
T4 sequence (A0A8I3NKU5 1-308): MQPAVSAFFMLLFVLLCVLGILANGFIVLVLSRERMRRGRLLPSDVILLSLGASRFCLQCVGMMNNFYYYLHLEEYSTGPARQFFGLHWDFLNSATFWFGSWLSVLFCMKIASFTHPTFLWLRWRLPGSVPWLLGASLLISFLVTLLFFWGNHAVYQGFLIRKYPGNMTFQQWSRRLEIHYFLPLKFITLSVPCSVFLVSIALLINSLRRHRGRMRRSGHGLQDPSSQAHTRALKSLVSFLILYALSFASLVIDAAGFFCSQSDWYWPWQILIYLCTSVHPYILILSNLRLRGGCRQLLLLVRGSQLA
Text: calcium imaging (Cal520-AM), HEK293T cells on dTas2r41

dTas2r5 = molecular target: T5, dTas2r5 (Canis lupus, UniProt Q2ABD6)
T5 construct: gene TAS2R5; HEK293T-PEAKrapid cells with Galpha16i/o44
T5 sequence (Q2ABD6 1-295): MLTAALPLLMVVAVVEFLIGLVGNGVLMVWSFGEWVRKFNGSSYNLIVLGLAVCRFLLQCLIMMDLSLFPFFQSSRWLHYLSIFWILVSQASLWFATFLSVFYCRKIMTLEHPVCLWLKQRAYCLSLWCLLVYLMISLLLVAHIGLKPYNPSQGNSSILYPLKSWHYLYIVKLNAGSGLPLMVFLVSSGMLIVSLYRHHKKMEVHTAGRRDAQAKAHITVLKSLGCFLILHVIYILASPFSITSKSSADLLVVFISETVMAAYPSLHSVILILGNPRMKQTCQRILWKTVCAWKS
Text: calcium imaging (Cal520-AM), HEK293T cells on dTas2r5

## O=C1NS(=O)(=O)c2cc([N+](=O)[O-])ccc21 [6-Nitrosaccharin]
dTas2r1
  dTas2r1: 0.041 mM
dTas2r4; read-out: dTas2r4
  EC50: 1120 µM

## COc1cccc2c1cc([N+](=O)[O-])c1c(C(=O)O)cc3c(c12)OCO3 [Aristolochic acid I]
dTas2r4
  EC50: 190 µM

## CC(=O)OC(C)(C)/C=C/C(=O)[C@](C)(O)[C@H]1[C@H](O)C[C@@]2(C)[C@@H]3CC=C4[C@@H](C[C@H](O)C(=O)C4(C)C)[C@]3(C)C(=O)C[C@]12C [Cucurbitacin B]
dTas2r10
  EC50: 2.4 µM

## CC[N+](CC)(CC(=O)Nc1c(C)cccc1C)Cc1ccccc1 [Denatonium benzoate]
dTas2r4; read-out: dTas2r4
  EC50: 4350 µM

## O=c1cc(-c2ccccc2)oc2ccccc12 [Flavone]
dTas2r1
  dTas2r1: 0.00082 mM

## CC[N+](C)(CC)CCOC(=O)C(O)(c1ccccc1)C1CCCCC1 (stereo not drawn) [Oxyphenonium bromide]
dTas2r41
  dTas2r41: 11.11 mM
dTas2r4; read-out: dTas2r4
  EC50: 4760 µM

## OC[C@H]1O[C@H](O[C@]2(CCl)O[C@H](CCl)[C@@H](O)[C@@H]2O)[C@H](O)[C@@H](O)[C@H]1Cl [Sucralose]
dTas2r5
  EC50: 42900 µM

Reference: PMC9710775, “Bitter taste sensitivity in domestic dogs (Canis familiaris) and its relevance to bitter deterrents of ingestion” (PLOS ONE, 2022)
